Results published in ChEMBL document CHEMBL5329225, “Solubilizer Tag Effect on PD-L1/Inhibitor Binding Properties for m-Terphenyl Derivatives” (ACS Med Chem Lett, 2024).
Calls of active or inactive are those of the source. No cut-off for these calls is given here.

What was measured:
[1] = molecular target: Programmed cell death protein 1/Programmed cell death 1 ligand 1 (Homo sapiens, UniProt Q9NZQ7); experiment: Inhibition of human PD-1/PDL1 interaction incubated for 1 hr by HTRF assay; format: protein-complex assay
[2] = test system: Jurkat; experiment: Induction of T cell activation in human Jurkat T cells overexpressing PD-1 co-cultured with Chinese hamster CHO cells overexpressing PD-L1 assessed as increase in luciferase activity at 6.4 uM incubated for 6 hrs by Bio-GloTM reagent based immune checkpoint blockade assay; format: functional
[3] = Toxicity in human Jurkat T cells overexpressing PD-1 co-cultured with Chinese hamster CHO cells overexpressing PD-L1 at 0.01 to 100 uM; format: cell-based; settings: dose 0.01-100 µM
[4] = test system: Jurkat; experiment: Induction of T cell activation in human Jurkat T cells overexpressing PD-1 co-cultured with Chinese hamster CHO cells overexpressing PD-L1 assessed as increase in luciferase activity incubated for 6 hrs by Bio-GloTM reagent based immune checkpoint blockade assay; format: functional
[5] = test system: Jurkat; experiment: Induction of T cell activation in human Jurkat T cells overexpressing PD-1 co-cultured with Chinese hamster CHO cells overexpressing PD-L1 assessed as increase in luciferase activity at 1 uM incubated for 6 hrs by Bio-GloTM reagent based immune checkpoint blockade assay; format: functional

Chain of Programmed cell death protein 1/Programmed cell death 1 ligand 1 (Q15116 whole entry): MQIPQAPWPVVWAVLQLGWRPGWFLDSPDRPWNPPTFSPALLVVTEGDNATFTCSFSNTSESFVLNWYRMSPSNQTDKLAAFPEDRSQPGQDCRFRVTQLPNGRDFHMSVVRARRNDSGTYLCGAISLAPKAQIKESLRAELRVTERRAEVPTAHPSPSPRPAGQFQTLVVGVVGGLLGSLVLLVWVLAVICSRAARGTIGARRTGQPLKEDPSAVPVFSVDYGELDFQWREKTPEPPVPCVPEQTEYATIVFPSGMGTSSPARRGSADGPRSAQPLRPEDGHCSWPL
Chain of Programmed cell death protein 1/Programmed cell death 1 ligand 1 (Q9NZQ7 whole entry): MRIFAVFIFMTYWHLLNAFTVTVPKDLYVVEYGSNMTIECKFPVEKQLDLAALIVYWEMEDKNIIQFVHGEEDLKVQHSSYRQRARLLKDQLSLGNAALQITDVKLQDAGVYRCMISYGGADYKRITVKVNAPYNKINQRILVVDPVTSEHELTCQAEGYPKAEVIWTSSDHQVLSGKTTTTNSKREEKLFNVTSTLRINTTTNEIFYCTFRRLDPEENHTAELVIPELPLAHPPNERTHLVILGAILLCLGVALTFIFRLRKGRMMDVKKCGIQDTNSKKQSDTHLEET

SMILES | IC50 [1] [nM] | Activity [2] | Activity [3] | Activity [4] | Activity [5]
COc1cc(-c2cccc(-c3ccc4c(c3)OCCO4)c2Cl)ccc1CN1CCCC(C(=O)NC(CO)CO)C1 (stereo not given) | 6 |  |  |  | 
COc1cc(-c2cccc(-c3ccc4c(c3)OCCO4)c2Cl)ccc1CN1CCC(C(=O)NN(C)C)C1 (stereo not given) |  | Active | Toxic | Dose-Dependent Effect | 
COc1cc(-c2cccc(-c3ccc4c(c3)OCCO4)c2Cl)ccc1CN1CCC(C(=O)NC(CO)CO)C1 (stereo not given) |  | Active | Toxic | Dose-Dependent Effect | inactive
COc1cc(-c2cccc(-c3ccc4c(c3)OCCO4)c2Cl)ccc1CN1CCC(C(=O)NCCO)C1 (stereo not given) |  |  | Toxic | Dose-Dependent Effect | 
COc1cc(-c2cccc(-c3ccc4c(c3)OCCO4)c2Cl)ccc1CN1CCC(C(=O)NC(CO)(CO)CO)C1 (stereo not given) |  | inactive |  |  | inactive
COc1cc(-c2cccc(-c3ccc4c(c3)OCCO4)c2Cl)ccc1CN1CCC(C(=O)NO)C1 (stereo not given) |  |  |  |  | inactive
COc1cc(-c2cccc(-c3ccc4c(c3)OCCO4)c2Cl)ccc1CN1CCC(C(=O)NCCN)C1 (stereo not given) |  | inactive |  |  | inactive
